From ChEMBL document CHEMBL4622847, “Synthesis and structure-activity relationships of thieno[2,3-d]pyrimidines as atypical protein kinase C inhibitors to control retinal vascular permeability and cytokine-induced edema” (Bioorg Med Chem, 2020) come the findings set out here.

Calls of active or inactive are those of the source. No cut-off for these calls is given here.

Usually IC50 stands for the concentration that inhibits the measured activity by half. For orientation: AUC means the area under the concentration-time curve, a measure of exposure. The low end stands for low exposure, the high end for high exposure. What is called EC50 is the concentration at which the effect is half-maximal. The Kp is tissue or fluid exposure divided by exposure in the circulation. For orientation: Cmax means the peak of the concentration-time curve. Usually Tmax stands for the time at which the peak concentration occurs.

Data set [1] has as its system Rattus norvegicus. The data set is described as follows: Inhibition of VEGF/TNFalpha-induced retinal vascular permeability in Long-Evans rat at 3 uM administered intravitreally followed by FITC-BSA, iv injection 3 hrs post drug dose and measured after 2 hrs by spectrophotometric method relative to control. Format: functional.
Data set [2] can be described thus: Inhibition of PKA (unknown origin) by radiometric kinase assay. More on the design: species or system Homo sapiens.
Data set [3] is filed under the species Homo sapiens. The data set is described as follows: Selectivity ratio of IC50 for inhibition of recombinant full-length human aPKCzeta using CREBtide as substrate to IC50 for of recombinant full-length human aPKCiota using CREBtide as substrate.
For data set [4], the species on record is Homo sapiens. The data set is described as follows: Inhibition of PKA (unknown origin) at 5 uM by radiometric kinase assay.
In data set [5] the target is Protein kinase C beta type (Homo sapiens) (UniProt P05771). The data set is described as follows: Inhibition of PKCbeta1 (unknown origin) at 5 uM by radiometric kinase assay.
Sequence of Protein kinase C beta type (Homo sapiens) (P05771 2-671 limits assumed): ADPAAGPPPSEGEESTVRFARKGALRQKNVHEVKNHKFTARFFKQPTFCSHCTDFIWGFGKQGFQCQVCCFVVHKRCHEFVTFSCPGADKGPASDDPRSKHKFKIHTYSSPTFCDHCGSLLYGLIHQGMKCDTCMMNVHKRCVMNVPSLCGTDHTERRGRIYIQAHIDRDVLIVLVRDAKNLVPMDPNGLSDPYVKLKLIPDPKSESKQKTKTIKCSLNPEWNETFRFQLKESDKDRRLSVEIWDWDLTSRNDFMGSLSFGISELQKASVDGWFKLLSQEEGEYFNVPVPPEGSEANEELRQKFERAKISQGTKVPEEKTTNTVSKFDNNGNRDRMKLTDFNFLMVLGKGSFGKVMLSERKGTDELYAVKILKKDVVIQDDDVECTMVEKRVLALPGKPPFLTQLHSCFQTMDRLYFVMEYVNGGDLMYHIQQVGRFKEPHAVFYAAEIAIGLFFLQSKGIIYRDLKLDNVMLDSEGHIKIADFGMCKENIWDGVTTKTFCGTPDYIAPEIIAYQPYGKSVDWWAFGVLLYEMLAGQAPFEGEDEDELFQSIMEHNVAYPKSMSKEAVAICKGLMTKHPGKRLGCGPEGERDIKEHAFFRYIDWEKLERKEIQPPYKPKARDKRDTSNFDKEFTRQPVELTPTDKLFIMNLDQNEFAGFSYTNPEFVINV
For data set [6], the system named is HEK293. The data set is described as follows: Cytotoxicity against HEK293 cells assessed as effect on cell survival by WST-1 assay. Format: cell-based. Conditions: human. On the technique in general: Formazan colour is commonly taken as a measure of viable cells.
Data set [7] in a line: AUC in CD1 mouse plasma at 10 mg/kg, iv measured up to 24 hrs. Conditions: in vivo. Set-up: dose 10 mg/kg, time < 24 hr, route intravenous. Format: ADME, organism-based.
The nature of data set [8]: Terminal elimination half life in CD1 mouse plasma at 10 mg/kg, iv measured up to 24 hrs. Format: ADME, organism-based. Conditions: in vivo.
A short description of data set [9]: Drug level in iv dosed CD-1 mouse eye after 24 hrs by LCMS analysis. Conditions: read-out: Drug uptake. Format: ADME, organism-based.
Data set [10] is described as follows: Ratio of drug level in CD-1 mouse eye to brain at 10 mg/kg, iv after 4 hrs by LCMS analysis. Conditions: in vivo. Format: ADME, organism-based.
The nature of data set [11]: Inhibition of VEGF-induced permeability in BREC cells incubated for 2 hrs. Format: functional, cell-based, Bos taurus.
For data set [12], the system named is Rattus norvegicus. The data set is described as follows: Inhibition of VEGF/TNFalpha-induced retinal vascular permeability in Long-Evans rat at 1 or 3 uM administered intravitreally followed by FITC-BSA, iv injection 3 hrs post drug dose and measured after 2 hrs by spectrophotometric method. Format: functional, organism-based.
The nature of data set [13]: Microsomal stability in CD1 mouse liver microsomes assessed as half life at 1 uM in presence of beta-NADPH measured upto 60 mins by LC-MS/MS analysis. Conditions: 1 h. Format: ADME, Microsome. (In general: Liver microsomes are vesicles of endoplasmic reticulum, rich in cytochrome P450 enzymes.)
Data set [14] has as its target Rho-associated protein kinase 2 (Homo sapiens) (UniProt O75116). The data set is described as follows: Inhibition of ROCK2 (unknown origin) at 5 uM by radiometric kinase assay.
Data set [15] in a line: Oral bioavailability in CD1 mouse plasma at 20 mg/kg measured up to 24 hrs. Conditions: in vivo. Format: ADME, organism-based.
A short description of data set [16]: Inhibition of TNFalpha-induced NFkappaB activation in HEK293 cells preincubated for 2 hrs followed by TNFalpha stimulation by luciferase assay. Format: cell-based. The conditions noted are these: Homo sapiens.
The species entered for data set [17] is Bos taurus. The data set is described as follows: Inhibition of VEGF-induced permeability in BREC cells in presence of Y-27632. Format: functional, cell-based.
Data set [18] addresses T1, Protein kinase C iota type (Homo sapiens, UniProt P41743).
T1 sequence (P41743 whole entry): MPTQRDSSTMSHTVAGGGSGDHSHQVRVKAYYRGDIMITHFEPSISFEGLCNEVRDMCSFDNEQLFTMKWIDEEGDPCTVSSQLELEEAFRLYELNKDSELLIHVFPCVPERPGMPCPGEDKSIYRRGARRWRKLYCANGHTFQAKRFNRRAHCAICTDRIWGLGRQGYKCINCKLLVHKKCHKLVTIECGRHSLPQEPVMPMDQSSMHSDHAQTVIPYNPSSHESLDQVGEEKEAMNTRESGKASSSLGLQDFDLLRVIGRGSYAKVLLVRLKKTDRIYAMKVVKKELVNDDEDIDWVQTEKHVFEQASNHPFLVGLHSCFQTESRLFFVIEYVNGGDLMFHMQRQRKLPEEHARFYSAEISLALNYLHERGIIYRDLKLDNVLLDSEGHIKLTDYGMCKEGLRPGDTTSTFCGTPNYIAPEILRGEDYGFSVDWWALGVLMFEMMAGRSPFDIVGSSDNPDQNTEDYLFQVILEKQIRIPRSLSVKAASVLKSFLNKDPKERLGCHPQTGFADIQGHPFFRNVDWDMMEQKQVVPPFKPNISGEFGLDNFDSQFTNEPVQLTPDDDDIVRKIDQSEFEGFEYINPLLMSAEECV
The data set is described as follows: Inhibition of recombinant full-length human aPKCiota using CREBtide as substrate incubated for 3 hrs in presence of ATP by kinase Glo luminescent assay. On the technique in general: Kinase-Glo reads ATP consumption through a luciferase reaction.

Data set [19] deals with Rattus norvegicus. The data set is described as follows: Effect on retinal function in overnight dark-adapted Long-Evans rat assessed as A-wave or B-wave amplitude at 3 uM administered intravitreally 3 to 5 hrs prior to exposure to a 0.1 cd.s/m2 to 10 cd.s/m2 test flash by electroretinography. Conditions: in vivo, topical_or_ocular. Format: ADME, organism-based.
Data set [20] in a line: Ratio of drug level in CD-1 mouse brain to plasma at 10 mg/kg, iv after 4 hrs by LCMS analysis. Format: ADME, organism-based.
Data set [21] is described as follows: Ratio of drug level in CD-1 mouse eye to brain at 20 mg/kg, po after 4 hrs by LCMS analysis. Format: ADME, organism-based. Conditions: in vivo.
The nature of data set [22]: Terminal elimination half life in CD1 mouse plasma at 20 mg/kg, po and measured up to 24 hrs. Format: ADME, organism-based. The conditions noted are these: in vivo.
Data set [23] in a line: Ratio of drug level in CD-1 mouse eye to plasma at 10 mg/kg, iv after 4 hrs by LCMS analysis. Format: ADME, organism-based.
The target of data set [24] is T1, Protein kinase C iota type. The data set is described as follows: Inhibition of recombinant full-length human aPKCiota in presence of ATP at Km concentration by radiometric assay.
Data set [25] can be described thus: Cmax in CD1 mouse plasma at 20 mg/kg, po measured up to 24 hrs. More on the design: dose 20 mg/kg, route oral. Format: ADME, organism-based. The conditions noted are these: in vivo.
Data set [26] has as its target T2, Protein kinase C zeta type (Homo sapiens, UniProt Q05513).
T2 sequence (Q05513 whole entry): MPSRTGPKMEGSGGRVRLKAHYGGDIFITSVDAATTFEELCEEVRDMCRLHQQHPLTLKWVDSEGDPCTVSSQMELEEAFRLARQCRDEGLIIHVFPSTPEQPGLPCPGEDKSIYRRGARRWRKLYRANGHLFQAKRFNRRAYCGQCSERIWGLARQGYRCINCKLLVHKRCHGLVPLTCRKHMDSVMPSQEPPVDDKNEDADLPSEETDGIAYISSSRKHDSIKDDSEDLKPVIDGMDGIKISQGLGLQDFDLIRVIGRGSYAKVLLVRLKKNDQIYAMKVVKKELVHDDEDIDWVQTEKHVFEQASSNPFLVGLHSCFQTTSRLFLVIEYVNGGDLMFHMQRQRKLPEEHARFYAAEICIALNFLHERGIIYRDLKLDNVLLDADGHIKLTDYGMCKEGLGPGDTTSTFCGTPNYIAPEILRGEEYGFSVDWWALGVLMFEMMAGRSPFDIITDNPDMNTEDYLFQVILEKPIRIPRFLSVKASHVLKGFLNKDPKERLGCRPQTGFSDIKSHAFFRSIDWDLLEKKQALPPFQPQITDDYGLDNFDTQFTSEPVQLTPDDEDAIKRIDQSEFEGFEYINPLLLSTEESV
The data set is described as follows: Inhibition of recombinant full-length human aPKCzeta in presence of ATP at Km concentration by radiometric assay.

Data set [27] in a line: Tmax in CD1 mouse plasma at 20 mg/kg, po measured up to 24 hrs. Conditions: in vivo. Format: ADME, organism-based.
Data set [28] is filed under the species Bos taurus. The data set is described as follows: Inhibition of VEGF-induced permeability in BREC cells at 0.01 to 1.0 uM incubated for 2 hrs. Format: functional, cell-based.
Data set [29] concerns HEK293. The data set is described as follows: Inhibition of TNFalpha-induced NFkappaB activation in HEK293 cells at 2.5 to 10 uM preincubated for 2 hrs followed by TNFalpha stimulation by luciferase assay. Format: cell-based. Conditions: Homo sapiens.
For data set [30], the target named is T2, Protein kinase C zeta type. The data set is described as follows: Inhibition of recombinant full-length human aPKCzeta using CREBtide as substrate incubated for 3 hrs in presence of ATP by Kinase Glo luminescent assay.
Data set [31] is described as follows: AUC in CD1 mouse plasma at 20 mg/kg, po measured up to 24 hrs. Format: ADME, organism-based. Set-up: time < 24 hr, dose 20 mg/kg, route oral. Conditions: in vivo.
Data set [32] is filed under the species Bos taurus. The data set is described as follows: Inhibition of VEGF-induced permeability in BREC cells at 1 uM incubated for 2 hrs. Format: functional, cell-based.
Data set [33] has as its target T2, Protein kinase C zeta type. The data set is described as follows: Inhibition of recombinant full-length human aPKCzeta expressed in Sf21 insect cells using 5FAM-ERMRPRKRQGSVRRRV-NH2 as substrate in presence of ATP after 60 mins by IMAP fluorescence polarization analysis.
The species named for data set [34] is Bos taurus. The data set is described as follows: Inhibition of VEGF-induced permeability in BREC cells at 3 uM incubated for 2 hrs. Format: functional, cell-based.
Data set [35] in a line: Cytotoxicity against […] BREC cells at 0.03 to 1 uM. Format: cell-based.
For data set [36], the species on record is Bos taurus. The data set is described as follows: Inhibition of VEGF-induced permeability in BREC cells at 0.01 uM incubated for 2 hrs. Format: functional, cell-based.

Sequence of Rho-associated protein kinase 2 (Homo sapiens) (O75116 whole entry, looked up): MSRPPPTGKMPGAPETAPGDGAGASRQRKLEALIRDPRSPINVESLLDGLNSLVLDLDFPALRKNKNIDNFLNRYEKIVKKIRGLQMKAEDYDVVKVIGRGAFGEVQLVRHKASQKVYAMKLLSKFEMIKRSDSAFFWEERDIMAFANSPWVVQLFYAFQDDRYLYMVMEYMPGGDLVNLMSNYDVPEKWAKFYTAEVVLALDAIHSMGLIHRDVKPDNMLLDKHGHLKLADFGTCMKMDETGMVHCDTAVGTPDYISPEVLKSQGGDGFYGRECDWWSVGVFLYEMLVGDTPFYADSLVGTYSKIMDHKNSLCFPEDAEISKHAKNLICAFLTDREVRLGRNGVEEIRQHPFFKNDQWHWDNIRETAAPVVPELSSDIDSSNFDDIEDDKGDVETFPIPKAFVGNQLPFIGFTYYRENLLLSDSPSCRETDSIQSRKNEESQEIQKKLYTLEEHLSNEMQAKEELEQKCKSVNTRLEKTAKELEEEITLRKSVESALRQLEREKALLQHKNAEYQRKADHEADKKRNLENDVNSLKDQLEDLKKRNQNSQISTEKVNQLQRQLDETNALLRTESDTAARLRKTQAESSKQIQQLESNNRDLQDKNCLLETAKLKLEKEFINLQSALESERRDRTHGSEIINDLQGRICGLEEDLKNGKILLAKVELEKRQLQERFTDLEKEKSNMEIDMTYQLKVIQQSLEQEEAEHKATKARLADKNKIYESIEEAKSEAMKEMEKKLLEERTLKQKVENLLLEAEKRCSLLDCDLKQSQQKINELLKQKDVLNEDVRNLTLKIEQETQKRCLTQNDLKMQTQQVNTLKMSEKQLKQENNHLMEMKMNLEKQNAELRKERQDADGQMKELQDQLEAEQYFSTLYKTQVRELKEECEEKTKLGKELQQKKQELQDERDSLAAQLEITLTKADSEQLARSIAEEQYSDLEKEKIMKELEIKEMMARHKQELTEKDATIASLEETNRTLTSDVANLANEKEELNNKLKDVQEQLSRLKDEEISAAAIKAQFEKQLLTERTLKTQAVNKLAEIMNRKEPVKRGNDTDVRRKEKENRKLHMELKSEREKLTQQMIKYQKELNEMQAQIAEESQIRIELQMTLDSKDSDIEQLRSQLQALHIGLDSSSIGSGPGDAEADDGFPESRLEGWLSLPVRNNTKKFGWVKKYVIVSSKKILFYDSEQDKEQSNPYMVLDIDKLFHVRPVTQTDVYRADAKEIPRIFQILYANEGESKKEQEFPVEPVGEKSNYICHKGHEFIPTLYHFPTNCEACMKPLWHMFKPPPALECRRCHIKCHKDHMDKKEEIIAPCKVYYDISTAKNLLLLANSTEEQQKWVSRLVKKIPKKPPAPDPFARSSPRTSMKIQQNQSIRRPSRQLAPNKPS

With `NCC1CCN(c2nc(-c3ccncc3)nc3sc4c(c23)CCCC4)CC1`, the “inhibition (INH)” value with Rattus norvegicus [1] is listed as 100%. Also, the IC50 in data set [2] was 500 nM; in data set [18], 70 nM; in [24], 4080 nM; in data set [26] it was 1640 nM; in [30], 520 nM. The Ratio IC50 in the data set filed under Homo sapiens [3] stood at 7.5. For the same compound, the inhibition result (in the data set listed under Homo sapiens [4]; in [5]; in the data set with Rattus norvegicus [12]; in [14]; in the data set listed under Bos taurus [17]; in the data set filed under Bos taurus [28]) was “Active” throughout. In addition, the inhibition result in the data set on HEK293 [29] was “Active”. In addition, the Activity result with HEK293 [6] and in the data set with Rattus norvegicus [19] was “Non-Toxic” throughout. The AUC in [7] was 4373 ng·h/mL; in [31], 6762 ng·h/mL. Besides, the “beta t1/2” value in [8] was 2.77 h; in data set [22], 7.83 h. Besides, the concentration at 24 h in data set [9] was found to be 375 ng/g. The results for the Ratio in data set [10], in data set [20] and in [21] were 1.3, 2.3 and 2, respectively. Also, the EC50 in [11] (read-out: EC50) worked out at 71 nM; in data set [16] it was 6650 nM. In data set [13], the t1/2 was above 1 h. This compound also displayed a F in [15] of 81.7%. In addition, in data set [23], the Kp at 4 h stood at 2.9. The compound further gave a Cmax in data set [25] of 488 ng/mL. For the same compound, the Tmax in [27] stood at 7 h.

With `c1cc(-c2cc(N3CCNCC3)c3c4c(sc3n2)CCCC4)ccn1`, the inhibition entry in the data set filed under Bos taurus [32] is “inactive”. Also, the EC50 entry in data set [11] is on record as “Not Active”. Further, the IC50 in data set [30] came to 1150 nM.

For `CN1CCN(c2nc(-c3ccncc3)nc3sc4c(c23)CCCC4)CC1`, the IC50 in data set [33] was 3700 nM.

With `NC1CCN(c2nc(-c3ccncc3)nc3sc4c(c23)CCCC4)CC1`, the EC50 in [11] (read-out: EC50) was 300 nM.

In the case of `OC1CCN(c2nc(-c3ccncc3)nc3sc4c(c23)CCCC4)CC1`, the EC50 entry in data set [11] is “Not Active”. In addition, in the data set filed under Bos taurus [34], the inhibition result was “inactive”. Moreover, the IC50 in data set [30] was determined as 2400 nM.

Turning to `c1cc(-c2nc(NCCN3CCNCC3)c3c4c(sc3n2)CCCC4)ccn1`, in data set [30], the IC50 came to 11100 nM.

As to `NCCN1CCN(c2nc(-c3ccncc3)nc3sc4c(c23)CCCC4)CC1`, the IC50 in [30] turned out to be 420 nM.

As to `CN(C)C1CCN(c2nc(-c3ccncc3)nc3sc4c(c23)CCCC4)CC1`, the EC50 in data set [11] (read-out: EC50) is 300 nM.

In the case of `c1cc(-c2nc(N3CCNCC3)c3c4c(sc3n2)CCCC4)ccn1`, in data set [35], the Activity entry is given as “Toxic”. Also, the inhibition result in the data set filed under Bos taurus [32] and in the data set filed under Bos taurus [36] was “inactive” in each case. For the same compound, the EC50 entry in data set [11] is recorded as “Not Active”.
